Experimental findings from patent US11884675B2, “Heterocyclic compounds as triggering receptor expressed on myeloid cells 2 agonists and methods of use” (AMGEN INC., priority 2020, dated 2024) are described below.

As usually defined, the EC50 is the concentration needed to bring the measured effect to its halfway point. A high value points to lower potency in that assay.

Chain of hTREM2 (Q9NZC2 19-230): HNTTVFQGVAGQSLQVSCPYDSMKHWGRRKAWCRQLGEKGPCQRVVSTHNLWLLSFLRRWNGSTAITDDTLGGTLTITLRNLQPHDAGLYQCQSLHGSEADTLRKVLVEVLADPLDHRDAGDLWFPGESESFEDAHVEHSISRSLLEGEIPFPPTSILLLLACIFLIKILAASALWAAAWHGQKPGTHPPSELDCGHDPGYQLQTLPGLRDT
Chain of hTREM2 (O43914 22-113 partner): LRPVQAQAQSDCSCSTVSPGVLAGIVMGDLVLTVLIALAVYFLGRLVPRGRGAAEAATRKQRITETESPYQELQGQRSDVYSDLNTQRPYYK

The assay concerns the target hTREM2 (Homo sapiens, UniProt Q9NZC2). Put plainly: TREM2 activity by cellular Syk phosphorylation (AlphaScreen/AlphaLISA) in TREM2/DAP12-HEK cells, used for Examples 1-305. In kind it is cell-based. Also noted: expressed in transfected cells. The note with it: HEK293 Cells. The essentials:
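Single-cell-cloned HEK293 cells overexpressing TREM2 and DAP12, seeded 20 h, exposed to test articles (1% final DMSO) for 45 min at room temperature. Lysates read for phospho-Syk (Tyr525/526) vs total Syk by AlphaScreen. Signal normalised as percent of control between isotype IgG and 100 nM anti-TREM2 antibody; 4-parameter logistic fit.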
As for `Cc1nc2nc([C@H]3CCO[C@H](c4cnn(C)c4)C3)nc(-c3ccc(F)cc3F)c2nc1C` [Example 263, 4-(2,4-difluorophenyl)-6,7-dimethyl-2-((2S,4S)-2-(1-methyl-1H-pyrazol-4-yl)tetrahydro-2H-pyran-4-yl)pteridine], the EC50 lay in the range of 0.5 to 3 µM; the “hTREM2 Emax” value was “+++ (Emax>150 and ≤250)”.

As for `Cc1ccc(-c2nc([C@H]3CCO[C@H](c4cnn(C)c4)C3)nc3nc(C)c(C)nc23)c(F)c1` [Example 264, 4-(2-fluoro-4-methylphenyl)-6,7-dimethyl-2-((2S,4S)-2-(1-methyl-1H-pyrazol-4-yl)tetrahydro-2H-pyran-4-yl)pteridine], the EC50 lay in the range of 0.5 to 3 µM and the “hTREM2 Emax” value was “++++ (Emax>250)”.

Regarding `Cc1nc2nc([C@H]3CCO[C@H](c4cnn(C)c4)C3)cc(-c3ccc(F)cc3F)c2nc1C` [Example 265, 8-(2,4-difluorophenyl)-2,3-dimethyl-6-((2S,4S)-2-(1-methyl-1H-pyrazol-4-yl)tetrahydro-2H-pyran-4-yl)pyrido[2,3-b]pyrazine], the EC50 was 0.5 to 3 µM; the “hTREM2 Emax” value was “+++ (Emax>150 and ≤250)”.

For the compound `Cc1ccc(-c2cc([C@H]3CCO[C@H](c4cnn(C)c4)C3)nc3nc(C)c(C)nc23)c(F)c1` [Example 266, 8-(2-fluoro-4-methylphenyl)-2,3-dimethyl-6-((2S,4S)-2-(1-methyl-1H-pyrazol-4-yl)tetrahydro-2H-pyran-4-yl)pyrido[2,3-b]pyrazine], the EC50 was in the range of 0.5 to 3 µM and the “hTREM2 Emax” value is recorded as “++++ (Emax>250)”.

In the case of `Cc1cc2c(-c3ccc(F)cc3F)nc([C@@H]3CCO[C@@H](c4cnn(C)c4)C3)nc2nc1C` [Example 267, 4-(2,4-difluorophenyl)-6,7-dimethyl-2-((2R,4R)-2-(1-methyl-1H-pyrazol-4-yl)tetrahydro-2H-pyran-4-yl)pyrido[2,3-d]pyrimidine], the concentration for a half-maximal effect (EC50) fell in the range of 0.5 to 3 µM; the “hTREM2 Emax” value was “++ (Emax>100 and ≤150)”.

As to `Cc1ccc(-c2nc([C@@H]3CCO[C@@H](c4cnn(C)c4)C3)nc3nc(C)c(C)cc23)c(F)c1` [Example 268, 4-(2-fluoro-4-methylphenyl)-6,7-dimethyl-2-((2R,4R)-2-(1-methyl-1H-pyrazol-4-yl)tetrahydro-2H-pyran-4-yl)pyrido[2,3-d]pyrimidine], the EC50 lay within 0.5 to 3 µM and the “hTREM2 Emax” value is reported as “++++ (Emax>250)”.

On to `Cc1nc2nc(N3CCO[C@@H](c4cnn(C)c4)C3)nc(N3CC(C(F)F)C3)c2nc1C` [Example 269, (S)-4-(4-(3-(difluoromethyl)azetidin-1-yl)-6,7-dimethylpteridin-2-yl)-2-(1-methyl-1H-pyrazol-4-yl)morpholine], for which the EC50 was in the range of 3 to 100 µM; the “hTREM2 Emax” value is “+ (Emax>45 and ≤100)”.

As to `Cc1cnc2c(-c3ccc(Cl)cc3F)nc([C@@H]3CCO[C@H](c4cnn(C5CC5)c4)C3)nc2n1` [Example 270, 4-(4-chloro-2-fluorophenyl)-2-((2S,4R)-2-(1-cyclopropyl-1H-pyrazol-4-yl)tetrahydro-2H-pyran-4-yl)-7-methylpteridine], the EC50 was 0.5 to 3 µM; the “hTREM2 Emax” value was “+++ (Emax>150 and ≤250)”.

Regarding `Cc1cnc2c(-c3ccc(Cl)cc3F)cc([C@@H]3CCO[C@H](c4cnn(C)c4)C3)nc2n1` [Example 271, 8-(4-chloro-2-fluorophenyl)-3-methyl-6-((2S,4R)-2-(1-methyl-1H-pyrazol-4-yl)tetrahydro-2H-pyran-4-yl)pyrido [2,3-b]pyrazine], the EC50 was 3 to 100 µM; the “hTREM2 Emax” value was “+++ (Emax>150 and ≤250)”.

With `Cc1cc([C@@H]2C[C@@H](c3nc(-c4ccc(Cl)cc4F)c4nc(C)c(C)nc4n3)CCO2)ccn1` [Example 272, 4-(4-chloro-2-fluorophenyl)-6,7-dimethyl-2-((2S,4S)-2-(2-methylpyridin-4-yl)tetrahydro-2H-pyran-4-yl)pteridine], the EC50 was no more than 0.05 µM and the “hTREM2 Emax” value is reported as “++++ (Emax>250)”.

As to `Cc1cc([C@H]2C[C@H](c3nc(-c4ccc(Cl)cc4F)c4nc(C)c(C)nc4n3)CCO2)ccn1` [Example 273, 4-(4-chloro-2-fluorophenyl)-6,7-dimethyl-2-((2R,4R)-2-(2-methylpyridin-4-yl)tetrahydro-2H-pyran-4-yl)pteridine], the EC50 was no more than 0.05 µM; the “hTREM2 Emax” value was “+++ (Emax>150 and ≤250)”.

As to `Cc1cnc2c(n1)nc(N1CCO[C@@H](c3cnn(C)c3)C1)nc2[C@H]1C[C@@H](C(F)(F)F)C1` [Example 274, (S)-2-(1-methyl-1H-pyrazol-4-yl)-4-(7-methyl-4-((1s,3R)-3-(trifluoromethyl)cyclobutyl)pteridin-2-yl)morpholine], the EC50 was 3 to 100 µM; the “hTREM2 Emax” value was “++ (Emax>100 and ≤150)”.

In the case of `Cc1ccc2c(n1)nc(N1CCO[C@@H](c3cnn(C)c3)C1)nc2[C@H]1C[C@@H](C(F)(F)F)C1` [Example 275, (S)-2-(1-methyl-1H-pyrazol-4-yl)-4-(7-methyl-4-((1s,3R)-3-(trifluoromethyl)cyclobutyl)pyrido[2,3-d]pyrimidin-2-yl)morpholine], the EC50 was 3 to 100 µM; the “hTREM2 Emax” value is “+ (Emax>45 and ≤100)”.

Take `Cc1cc([C@H]2C[C@H](c3nc(-c4ccc(F)cc4F)c4ccc(C)nc4n3)CCO2)ccn1` [Example 278, 4-(2,4-difluorophenyl)-7-methyl-2-((2R,4R)-2-(2-methylpyridin-4-yl)tetrahydro-2H-pyran-4-yl)pyrido [2,3-d]pyrimidine]: the EC50 was in the range of 0.5 to 3 µM; the “hTREM2 Emax” value is “+++ (Emax>150 and ≤250)”.

Regarding `Cc1cc([C@H]2CN(c3nc4nc(C)cnc4c([C@H]4C[C@H](C(F)(F)F)C4)n3)CCO2)cnn1` [Example 279, (S)-4-(7-methyl-4-((1r,3S)-3-(trifluoromethyl)cyclobutyl)pteridin-2-yl)-2-(6-methylpyridazin-4-yl)morpholine], the EC50 lay within 0.5 to 3 µM; the “hTREM2 Emax” value was “+++ (Emax>150 and ≤250)”.

`Cc1cc([C@H]2CN(c3nc4nc(C)cnc4c([C@H]4C[C@@H](C(F)(F)F)C4)n3)CCO2)cnn1` [Example 280, (S)-4-(7-methyl-4-((1s,3R)-3-(trifluoromethyl)cyclobutyl)pteridin-2-yl)-2-(6-methylpyridazin-4-yl)morpholine]: the 50% effective concentration (EC50) is 0.5 to 3 µM; the “hTREM2 Emax” value is “+++ (Emax>150 and ≤250)”.

Regarding `Cc1cc([C@@H]2CN(c3nc4nc(C)cnc4c([C@H]4C[C@H](C(F)(F)F)C4)n3)CCO2)cnn1` [Example 281, (R)-4-(7-methyl-4-((1r,3S)-3-(trifluoromethyl)cyclobutyl)pteridin-2-yl)-2-(6-methylpyridazin-4-yl)morpholine], the EC50 fell in the range of 0.5 to 3 µM; the “hTREM2 Emax” value is “+++ (Emax>150 and ≤250)”.

As to `Cc1ncc([C@@H]2C[C@H](c3nc(-c4ccc(Cl)cc4F)c4nc(C)c(C)nc4n3)CCO2)cn1` [Example 282, 4-(4-chloro-2-fluorophenyl)-6,7-dimethyl-2-((2S,4R)-2-(2-methylpyrimidin-5-yl)tetrahydro-2H-pyran-4-yl)pteridine], the concentration for a half-maximal effect (EC50) lay in the range of 0.5 to 3 µM; the “hTREM2 Emax” value was “++ (Emax>100 and ≤150)”.

With `Cn1cc([C@H]2CN(c3nc(-c4ccc(Cl)cc4F)c4ccc(Cl)nc4n3)CCO2)cn1` [Example 283, (S)-4-(7-chloro-4-(4-chloro-2-fluorophenyl)pyrido[2,3-d]pyrimidin-2-yl)-2-(1-methyl-1H-pyrazol-4-yl)morpholine], the EC50 is 0.5 to 3 µM; the “hTREM2 Emax” value was “++ (Emax>100 and ≤150)”.
